Laboratory results: patent publication US9539315B2, “Methods, agents and peptides for inhibiting matrix metalloproteinase-2 signaling” (New York University, priority 2011, dated 2017)

B1: heat-inactivated (HI) MMP-2: MMP-2 enzyme inactivated by heating to 56° C. for 45 min (protein)
chain: YNFFPRKPKWDKNQITYRIIGYTPDLDPETVDDAFARAFQVWSDVTPLRFSRIHDGEADIMINFGRWEHGDGYPFDGKDGLLAHAFAPGTGVGGDSHFDDDELWTLGEGQVVRVKYGNADGEYCKFPFLFNGKEYNSCTDTGRSDGFLWCSTTYNFEKDGKYGFCPHEALFTMGGNAEGQPCKFPFRFQGTSYDSCTTEGRTDGYRWCGTTEDYDRDKKYGFCPETAMSTVGGNSEGAPCVFPFTFLGNKYESCTSAGRSDGKMWCATTANYDDDRKWGFCPDQGYSLFLVAAHEFGHAMGLEHSQDPGALMAPIYTYTKNFRLSQDDIKGIQELYGASPDIDLGTGPTPTLGPVTPEICKQDIVFDGIAQIRGEIFFFKDRFIWRTVTPRDKPMGPLLVATFWPELPEKIDAVYEAPQEEKAVFFAGNEYWIYSASTLERGYPKPLTSLGLPPDVQRVDAAFNWSKNKKTYIFAGDKFWRYNEVKKKMDPGFPKLIADAWNAIPDNLDAVVDLQGGGHSYFFKGAYYLKLENQSLKSVKFGSIKSDWLGC

Key:
[1] = tested on: MMP-2-specific CD4^+ T cells; assay: Screen of overlapping MMP-2 peptides for recognition by CD4+ T cell clones; format: cell-based, human; conditions: 20-mer peptides of MMP-2
Source text: By way of background, the present inventors used a pool of sixty-six 20-amino acid long, partially overlapping peptides spanning the entire sequence of MMP-2 (SEQ ID NO: 1) to screen for the presence of MMP-2-specific CD4^+ T cells and identify the specific MMP-2 epitopes for which these clones were specific. See, for example, FIG. 6. Using this method, CD4^+ T cell clones specific for eleven distinct and novel MMP-2-derived peptides/epitopes were generated. An empirical approach to determining which, if any, of the potential MMP-2 peptides could induce MMP-2-specific CD4^+ T cells was necessitated because of the nature and complexity of antigen processing and presentation by antigen presenting cells [APCs; e.g., monocyte-derived dendritic cells (DCs)] and the additional complexities involved in T cell recognition of presented antigen, which are influenced by, for example, the presence and/or concentration of particular cytokines that are instructive for divergent T cell differentiation pathways.
Peripheral blood mononuclear cells (PBMCs) can be purified from healthy donor- (HD) or cord blood donor- (CB) derived buffy coats (New York Blood Center) by Ficoll-Paque Plus (GE Healthcare) centrifugation. CD4^+/CD25^− cells were enriched (>90%) by magnetic cell sorting (Miltenyi Biotec) and primed/stimulated for 12-15 days either with irradiated (35Gy) autologous CD4^− cells or with autologous mature DCs in IMDM (GIBCO) supplemented with 1 mM HEPES (Life Technologies), 2 mM L-glutamine (Sigma), […] (Sigma) and 5% heat inactivated pooled human serum (PHS; Valley Biomedical) in the presence of rhIL-2 (10 UI/mL) and IL7 (5 ng/mL) (R&D Systems). Antigen presenting cells (CD4^− cells or DCs) were loaded either with peptides […] or with the MMP-2 protein (10 μg/mL) for 2 and 5 h, respectively. To generate T cell clones, we originally relied on our published methodology (Godefroy et al., 2006; Godefroy et al., 2007; the entire content of each of which is incorporated herein by reference), involving enrichment of IFNγ-secreting cells upon short-term culture and peptide stimulation to generate MMP-2 responsive clones. Briefly, CD4^+ T cells were stimulated by CD4^− cells irradiated and pulsed with peptides for 12 days in the presence of rhIL-2 and rhIL-7. CD4^+ T cells were then restimulated with peptides for 3 hours before capturing IFNγ-secreting specific cells using a bispecific antibody coating T cells and capturing produced IFNγ. Positive cells were purified magnetically before being cloned. Although MMP-2-specific cells could be isolated, it was realized that IFNγ secretion was marginal compared to their secretion of IL-4 and TNFα. IFNγ-secreting cells in response to MMP-2 peptide pool were enriched by cytokine-guided magnetic cell sorting (Miltenyi Biotec) as described above and cloned the following day by limiting dilution in the presence of irradiated allogeneic PBMCs, 1 μg/mL phytohemagglutinin-L (Sigma) and 150 UI/mL rhIL-2. Tumor infiltrating lymphocytes (TILs) were provided by Pr. F. Jotereau and B. Dréno. They were obtained from tumor-invaded lymph nodes of melanoma patients (stage IIIb) and expanded ex vivo. These patients received autologous TILs and IL-2 infusions in a clinical trial (Labarriere et al., 2002). This protocol was approved by the Institutional Ethics Committee and registered with regulatory state authority in France (Nantes).
T-bet and GATA-3 expression was measured on resting T cells. Cells were fixed (4% paraformaldehyde for 10 min at RT), permeabilized with 0.1% saponin, and stained for intracellular transcription factors. Cytokine production by T cells was also assessed by intracellular staining. T cells were stimulated with 2 μM overlapping peptides. After 1 h, 10 μg/mL brefeldin A was added to the cells. […]

OX40L = OX40L expression on DCs (staining); format: cell-based, human; conditions: for OX40L expression on DCs: DCs exposed for 2 days, stained for OX40L
Description: (§1) A) DCs were exposed to MMP-2 […] or zymosan […], a known activator of NF-κB that acts via TLR2, for the indicated time. Cytosolic and nuclear fractions were isolated and p50 contents were measured by ELISA. […] C) OX40L over-expression on DCs induced by MMP-2 is inhibited by an inhibitor of NEMO, the NEMO binding domain (NBD) peptide, but not by the corresponding negative control, a NBD mutant.
A) DCs were exposed to various TLR agonists for 2 days before cells were stained for OX40L. […] B) TLR2-transfected and engineered HEK cells were incubated with MMP-2 (5 mg/ml) or various controls. All conditions were also tested in the presence of a blocking antibody for TLR2. TNFα was used to activate NF-κB in a TLR-independent manner. Twenty hours later, NF-κB activation was measured.
Antibody to OX40L (11C3.1) was from Biolegend. Blocking antibodies to TLR-2 and TLR-6 were from Invivogen. Antibodies to GATA-3, IL-4 (8D4-8), IL-5 (JES1-39D10), IL-13 (JES10-5A2), TNFα (MAb11), IFNγ (25723.11), perforin (δG9), GranzymeB (GB11), CD40 (5C3), CD80 (L307.4), CD83 (HB15e), CD86 (IT2.2), HLA-DR (TU36), fluorescein isothiocyanate-conjugated antibodies to CD45RA (HI100) and CD45RO (UCHL1), and antibody to CD4 (RPA-T4) were purchased from BD Biosciences Pharmingen. Alexa fluor 488-conjugated antibody to IL-17 (eBio64DEC17), phycoerythrine-conjugated antibody to T-bet (4B10).
(§2) PBMCs were purified from healthy-(HD) or cord blood- (CB) donors and plated at 40×10^6 cells/10 mL/dish in complete IMDM with 5% PHS. Cells were allowed to adhere for 2 h at 37° C. Non-adherent cells were removed. The monocyte-enriched fraction was supplemented with 100 UI/mL rhGMCSF and 300 UI/mL rhIL-4 (R&D Systems) on days 0, 2 and 4. Immature DCs were harvested on day 5 and matured using poly(I:C) at 5 μg/mL/10^6 DCs (Amersham). Secretion of IL-12p70, TNFα, IL-1β, IL-6, IL-8 and IL-10 was assessed on both immature and mature DCs using the Human Inflammatory Cytokine Cytometric Bead Array (BD Pharmingen).

bone-marrow-derived DCs = assay: Activation of bone-marrow-derived DCs from wild-type and TLR-deficient mice; format: cell-based, C57/BL6 mice
Description: Bone-marrow-derived DCs from wild-type, TLR2^−/−, TLR6^−/− or MyD88^−/− C57/BL6 mice (3 mice pooled/condition) were incubated overnight with 5 μg/ml mMMP-2 or mMMP-9 as well as TLR agonists for controls. TNFα (A) and IL-6 (B) were measured by cytometric bead array analysis. Results are represented as a mean of triplicates±s.d. Two-tailed Student's t-tests were used for specific pairwise comparisons between conditions. p values≦0.05 (*) were considered statistically significant. C) Murine OX40L expression was assessed 2 days later by immunostaining.
Bone-marrow-derived DCs (BM-DCs) were generated and cultured with murine MMP-2 or various controls. […] On the other hand, TLR2^−/− and MyD88^−/− BM-DCs were not activated by MMP-2 (n=3; p<0.02 compared to wild-type mice) (FIG. 9A-C). […] Therefore, MMP-2 induces DCs to produce inflammatory cytokines and to up-regulate OX40L in a TLR2/MyD88-dependent manner.

NF-κB pathway = assay: p50 nuclear translocation / NF-κB activation in DCs (ELISA of cytosolic and nuclear fractions); format: cell-based, human
Description: as §1, §2
Activation of T cell clones (10,000 cells/100 μL/well), polyclonal T cell populations (100,000 cells/100 μL/well), and DCs (50,000 cells/100 μL/well) can be determined by ELISA. IFNγ (BioSource), TNFα (BioSource), IL-4 (BioSource), IFNβ (VeriKine; PBL interferon source) and MCP-3 (DuoSet; R&D Systems) contents in supernatants were measured according to the manufacturer's instructions. p50 was measured in cytosolic and nuclear fractions (fractions separated using the nuclear separation kit from Active motif) by ELISA (Active motif).

Molecule	recognition as epitope by CD4+ T cell clones [1]	also measured
TGPLRALCLLGCLLSHAAAA (listed as Homo sapiens) [P11-30]	recognized by CD4^+ T cell clones	
GYPKPLTSLGLPPDVQRVDA (listed as Homo sapiens) [P551-570]	recognized by CD4^+ T cell clones	
MALP-2		OX40L expression on DCs (OX40L): induce OX40L on DCs
MEALMARGALTGPLRALCLL (listed as Homo sapiens) [P1-20]	recognized by CD4^+ T cell clones	
VAPKTDKELAVQYLNTFYGC (listed as Homo sapiens) [P41-60]	recognized by CD4^+ T cell clones	
Pam3CSK4		OX40L over-expression on TLR-2-transfected HEK cells or DCs (OX40L; TLR-2/TLR-1 agonist): did not induce OX40L over-expression
GCLLSHAAAAPSPIIKFPGD (listed as Homo sapiens) [P21-40]	recognized by CD4^+ T cell clones	
RIHDGEADIMINFGRWEHGD (listed as Homo sapiens) [P161-180]	recognized by CD4^+ T cell clones	
ESCTSAGRSDGKMWCATTAN (listed as Homo sapiens) [P361-380]	recognized by CD4^+ T cell clones	
FFKGAYYLKLENQSLKSVKF (listed as Homo sapiens) [P631-650]	recognized by CD4^+ T cell clones	
NEMO binding domain (NBD) peptide		inhibition of OX40L over-expression on DCs induced by MMP-2 (OX40L; DCs, MMP-2-induced): inhibited
AFNWSKNKKTYIFAGDKFWR (listed as Homo sapiens) [P571-590]	recognized by CD4^+ T cell clones	
VDLQGGGHSYFFKGAYYLKL (listed as Homo sapiens) [P621-640]	recognized by CD4^+ T cell clones	
murine MMP-2: murine MMP-2 protein, active or inactive		activation of bone-marrow-derived DCs (bone-marrow-derived DCs; FIG. 9 summary): activates bone-marrow-derived DCs in a TLR2- and MyD88-dependent manner; activation of TLR2−/− and MyD88−/− BM-DCs (bone-marrow-derived DCs; TLR2−/− and MyD88−/− BM-DCs, n=3): not activated; inflammatory cytokine secretion (TNFα, IL-6) by BM-DCs (bone-marrow-derived DCs; wild-type and TLR6−/− BM-DCs, 5 μg/ml overnight, active or inactive): secreted inflammatory cytokines; OX40L up-regulation on BM-DCs (bone-marrow-derived DCs; wild-type and TLR6−/− BM-DCs, 2 days): up-regulated OX40L
GFPKLIADAWNAIPDNLDAV (listed as Homo sapiens) [P601-620]	recognized by CD4^+ T cell clones	
B1		p50 translocation in the nucleus (NF-κB pathway; DCs exposed to MMP-2 (5 μm/ml) or zymosan (10 μm/ml), p50 by ELISA): trigger p50 translocation in the nucleus; NF-κB activation in DCs (NF-κB pathway; active vs heat-inactivated MMP-2): NF-κB activation (FIGS. 2A, 2B and 3) at similar levels; OX40L expression on DCs (OX40L): induce OX40L expression
